Laboratory results published in patent publication US9708336B2, “Metallo-beta-lactamase inhibitors” (priority 2014, dated 2017).
Where two headings read alike, the source gives them in different places.

Experiments:
[1] = biological target: NDM-1 (Klebsiella pneumoniae, UniProt C7C422); experiment: biochemical; type: biochemical
[2] = biological target: IMP-1 (Serratia marcescens, UniProt P52699); experiment: biochemical; type: biochemical; conditions: read-out: IMP-1 IC50
[3] = biological target: VIM-1 (Pseudomonas aeruginosa (strain ATCC 15692 / DSM 22644 / CIP 104116 / JCM 14847 / LMG 12228 / 1C / PRS 101 / PAO1), UniProt A0A0F7KYQ8); experiment: Enzyme activity: determination of IC50, fluorescence assay with CCF2-FA substrate (VIM-1); type: biochemical
[4] = test system: Escherichia coli expressing NDM-1 (CLB30016); experiment: Antibiotic potentiation activity: synergistic concentration (MITC95) with imipenem, OD600 growth; type: cell-based; conditions: for Escherichia coli expressing NDM-1 (CLB 30016) MITC95: concentration giving 95% inhibition of bacterial growth
Procedure, shortened: (§1)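 Clinical MBL-producing strains (E. coli NDM-1, S. marcescens IMP-1, K. pneumoniae VIM-1) from overnight plates were diluted 1:100 into 1.1×CAMHB. Compound was tested with imipenem at 4 μg/ml (optionally 1 μg/ml) or without it. After 22–24 h at 35 °C, growth was read as OD600.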

[5] = test system: Klebsiella pneumoniae expressing VIM-1 (IHMA599644); experiment: as above; type: cell-based; conditions: for Klebsiella pneumoniae expressing VIM-1 (IHMA 599644) MITC95: concentration giving 95% inhibition of bacterial growth
Procedure, shortened: as §1

[6] = test system: Serratia marcescens expressing IMP-1 (CL5741); experiment: as above; type: cell-based; conditions: for Serratia marcescens expressing IMP-1 (CL5741) MITC95: concentration giving 95% inhibition of bacterial growth
Procedure, shortened: as §1

[7] = NDM-1 enzyme, CCF2-FA substrate, read-out: NDM-1 IC50
[8] = IMP-1 enzyme, CCF2-FA substrate
[9] = VIM-1 enzyme, CCF2-FA substrate, read-out: VIM-1 IC50
[10] = (CLB30016, NDM-1), 95% growth inhibition
[11] = Klebsiella pneumoniae IHMA599644 (VIM-1), 95% growth inhibition
[12] = Serratia marcescens CL5741 (IMP-1), 95% growth inhibition
[13] = fluorescence assay with CCF2-FA substrate, read-out: NDM-1 IC50
[14] = fluorescence assay with CCF2-FA substrate
[15] = NDM-1 enzyme, CCF2-FA fluorescence assay, read-out: NDM-1 IC50
[16] = IMP-1 enzyme, CCF2-FA fluorescence assay
[17] = Escherichia coli expressing NDM-1 (CLB30016), 95% growth inhibition
[18] = Klebsiella pneumoniae expressing VIM-1 (IHMA599644), 95% growth inhibition
[19] = Serratia marcescens expressing IMP-1 (CL5741), 95% growth inhibition
[20] = VIM-1 enzyme, CCF2-FA fluorescence assay, read-out: VIM-1 IC50
[21] = fluorescence assay with CCF2-FA substrate, read-out: VIM-1 IC50

IMP-1, sequence (P52699 whole entry, looked up): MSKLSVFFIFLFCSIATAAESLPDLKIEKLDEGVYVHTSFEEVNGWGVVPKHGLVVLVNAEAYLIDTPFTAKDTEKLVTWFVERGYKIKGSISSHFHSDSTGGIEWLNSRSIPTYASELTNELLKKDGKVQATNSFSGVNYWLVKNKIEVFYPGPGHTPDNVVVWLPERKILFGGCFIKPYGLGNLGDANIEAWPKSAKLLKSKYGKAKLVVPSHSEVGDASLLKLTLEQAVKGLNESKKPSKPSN
NDM-1, sequence (C7C422 whole entry, looked up, species assumed): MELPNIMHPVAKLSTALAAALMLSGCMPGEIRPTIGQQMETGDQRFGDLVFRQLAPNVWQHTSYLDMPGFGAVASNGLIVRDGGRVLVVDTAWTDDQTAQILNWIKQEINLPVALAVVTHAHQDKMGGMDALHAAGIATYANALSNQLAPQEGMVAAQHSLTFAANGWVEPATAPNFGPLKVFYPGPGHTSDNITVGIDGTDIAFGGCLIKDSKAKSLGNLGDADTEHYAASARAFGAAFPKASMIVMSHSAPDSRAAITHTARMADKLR

| Compound | IC50 [1, 7] [nM] | IC50 [2, 8] [nM] | IC50 [3, 9] [nM] | Escherichia coli MITC95 [4, 10] [µM] | Klebsiella pneumoniae MITC95 [5, 11] [µM] | Serratia marcescens MITC95 [6, 12] [µM] | IC50 [1, 15] [nM] | IC50 [2, 16] [nM] | Escherichia coli MITC95 [4, 17] [µM] | Klebsiella pneumoniae MITC95 [5, 18] [µM] | Serratia marcescens MITC95 [6, 19] [µM] | IC50 [3, 20] [nM] | also measured |
| --- | --- | --- | --- | --- | --- | --- | --- | --- | --- | --- | --- | --- | --- |
| NS(=O)(=O)c1c(C(F)(F)F)ccc(N2CCC[C@H](O)C2)c1-c1nnn[nH]1 [Example 657, 3-[(3S)-3-hydroxypiperidin-1-yl]-2-(1H-tetrazol-5-yl)-6-(trifluoromethyl)benzenesulfonamide] | 9.66 | 10.2 | 2.09 | 2.344 | 4.688 | 0.7813 | – | – | – | – | – | – | – |
| NS(=O)(=O)c1c(C(F)(F)F)ccc(-c2ccc(N3CCC(O)CC3)cc2)c1-c1nnn[nH]1 [Example 740, 4′-(4-hydroxypiperidin-1-yl)-2-(1H-tetrazol-5-yl)-4-(trifluoromethyl)biphenyl-3-sulfonamide] | 0.229 | 0.456 | 1.15 | 6.25 | 50 | 6.25 | – | – | – | – | – | – | – |
| CN(c1ccnc(S(N)(=O)=O)c1-c1nnn[nH]1)C1CCCCC1 [Example 232, 4-[cyclohexyl(methyl)amino]-3-(1H-tetrazol-5-yl)pyridine-2-sulfonamide] | – | – | – | – | – | – | – | – | – | – | – | – | IC50 [1, 13]: 892 nM; IC50 [2, 14]: 7640 nM; IC50 ([3]; VIM-1 IC50, fluorescence assay with CCF2-FA substrate): 166 nM; Escherichia coli expressing NDM-1 (CLB 30016) MITC95 [4]: 50 µM; Klebsiella pneumoniae expressing VIM-1 (IHMA 599644) MITC95 [5]: 150 µM; Serratia marcescens expressing IMP-1 (CL5741) MITC95 [6]: >200 µM |
| NS(=O)(=O)c1cccc(-c2ccc(CN3CCC(CO)C3)cc2)c1-c1nnn[nH]1 (stereo in doubt) [Example 391, 4′-{[(3S)-3-(hydroxymethyl)pyrrolidin-1-yl]methyl}-2-(1H-tetrazol-5-yl)biphenyl-3-sulfonamide] | – | – | – | – | – | – | 18.9 | 348 | 1.172 | 50 | 2.344 | – | IC50 ([3]; VIM-1 IC50, VIM-1 enzyme, CCF2-FA fluorescence assay): 401 nM |
| NS(=O)(=O)c1cccc(-c2ccc(CN3C[C@H](O)C[C@H]3CO)cc2)c1-c1nnn[nH]1 [Example 387, 4′-{[(2S,4R)-4-hydroxy-2-(hydroxymethyl)pyrrolidin-1-yl]methyl}-2-(1H-tetrazol-5-yl)biphenyl-3-sulfonamide] | – | – | – | – | – | – | 10.6 | 145 | 2.344 | 100 | 3.125 | 445 | – |
| NS(=O)(=O)c1nccc(NCCc2ccccc2)c1-c1nnn[nH]1 [Example 237, 4-[(2-phenylethyl)amino]-3-(1H-tetrazol-5-yl)pyridine-2-sulfonamide] | – | – | – | – | – | – | – | – | – | – | – | – | IC50 [1, 13]: 102 nM; IC50 [2, 14]: 581 nM; IC50 [3, 21]: 239 nM; Escherichia coli expressing NDM-1 (CLB 30016) MITC95 [4]: 18.75 µM; Klebsiella pneumoniae expressing VIM-1 (IHMA 599644) MITC95 [5]: >200 µM; Serratia marcescens expressing IMP-1 (CL5741) MITC95 [6]: 125 µM |
| Nc1nc2c(-c3ccc(CC4CCC4)c(S(N)(=O)=O)c3-c3nn[nH]n3)cccc2s1 [Example 535, 3-(2-Aminobenzo[d]thiazol-4-yl)-6-(cyclobutylmethyl)-2-(2H-tetrazol-5-yl)benzenesulfonamide] | 0.844 | 6.86 | 2.71 | 6.25 | 50 | 25 | – | – | – | – | – | – | – |
| NS(=O)(=O)c1c(C(F)(F)F)ccc(-c2snc3ncccc23)c1-c1nnn[nH]1 [Example 709, 3-isothiazolo[3,4-b]pyridin-3-yl-2-(1H-tetrazol-5-yl)-6-(trifluoromethyl)benzenesulfon-amide] | 6.58 | 16.4 | 0.289 | 6.25 | 6.25 | 25 | – | – | – | – | – | – | – |
| NS(=O)(=O)c1c(CCC2CCNCC2)ccc(-c2ccc(C3CCNCC3)cc2)c1-c1nn[nH]n1 [Example 460, 4′-(piperidin-4-yl)-4-(2-(piperidin-4-yl)ethyl)-2-(2H-tetrazol-5-yl)-[1,1′-biphenyl]-3-sulfonamide] | – | – | – | – | – | – | – | 16.6 | 0.5859 | 1.563 | 0.3906 | 10.4 | IC50 [1]: 3.97 nM |
| NS(=O)(=O)c1c(Br)ccc(-c2ccc3c(c2)CNC3)c1-c1nn[nH]n1 [Example 272, 6-bromo-3-(isoindolin-5-yl)-2-(2H-tetrazol-5-yl)benzenesulfonamide] | – | – | – | – | – | – | 7.17 | 49 | 0.7813 | 0.7813 | 1.563 | 5.54 | – |
| CNC1CCc2c(-c3ccc(C(F)(F)F)c(S(N)(=O)=O)c3-c3nnn[nH]3)cccc21 (stereo not drawn) [Example 726, 3-[1-(methylamino)-2,3-dihydro-1H-inden-4-yl]-2-(1H-tetrazol-5-yl)-6-(trifluoromethyl)benzenesulfon-amide] | 26.8 | 58.9 | 1.21 | 12.5 | 3.125 | 25 | – | – | – | – | – | – | – |
| Nc1nc2cccc(-c3cccc(S(N)(=O)=O)c3-c3nn[nH]n3)c2[nH]1 [Example 428, 3-(2-amino-1H-benzo[d]imidazol-7-yl)-2-(2H-tetrazol-5-yl)benzenesulfonamide] | – | – | – | – | – | – | 0.683 | 345 | 0.0625 | 1.531 | 6.25 | 17.3 | – |
| NCCCN1CCC(c2ccc(-c3cccc(S(N)(=O)=O)c3-c3nnn[nH]3)cc2)CC1 [Example 613, 3-[4-[1-(3-aminopropyl)-4-piperidyl]phenyl]-2-(1H-tetrazol-5-yl)benzenesulfonamide] | 14.1 | 36.3 | 253 | 0.25 | 18.75 | 0.543 | – | – | – | – | – | – | – |
| NS(=O)(=O)c1cccc(-c2snc3cccnc23)c1-c1nnn[nH]1 [Example 414, 3-isothiazolo[4,3-b]pyridin-3-yl-2-(1H-tetrazol-5-yl)benzenesulfonamide] | – | – | – | – | – | – | 6.01 | 177 | 2.344 | 18.75 | 4.688 | 19.9 | – |
| N=C(NC1CCNC1)c1ccc(-c2ccc(C(F)(F)F)c(S(N)(=O)=O)c2-c2nn[nH]n2)cc1 (stereo not drawn) [Example 564, N-(pyrrolidin-3-yl)-3′-sulfamoyl-2′-(2H-tetrazol-5-yl)-4′-(trifluoromethyl)biphenyl-4-carboximidamide] | 262 | 301 | 36.3 | 25 | 50 | 25 | – | – | – | – | – | – | – |
| Cc1nc(CNCc2ccc(-c3cccc(S(N)(=O)=O)c3-c3nnn[nH]3)cc2)no1 [Example 360, 4′-({[(5-methyl-1,2,4-oxadiazol-3-yl)methyl]amino}methyl)-2-(1H-tetrazol-5-yl)biphenyl-3-sulfonamide] | – | – | – | – | – | – | 1.52 | 37.6 | 2.344 | >200 | 2.344 | 232 | – |
| NS(=O)(=O)c1cccc(-c2cnn(CCN3CCOCC3)c2)c1-c1nnn[nH]1 [Example 126, 3-(1-(2-morpholinoethyl)-1H-pyrazol-4-yl)-2-(1H-tetrazol-5-yl)benzenesulfonamide] | – | – | – | – | – | – | – | – | – | – | – | – | IC50 [1, 13]: 166 nM; IC50 [2, 14]: 864 nM; IC50 [3, 21]: 14400 nM; Escherichia coli expressing NDM-1 (CLB 30016) MITC95 [4]: 6.25 µM; Klebsiella pneumoniae expressing VIM-1 (IHMA 599644) MITC95 [5]: >200 µM; Serratia marcescens expressing IMP-1 (CL5741) MITC95 [6]: 25 µM |
| NS(=O)(=O)c1c(CCO)ccc(-c2cccc3ncccc23)c1-c1nn[nH]n1 [Example 530, 6-(2-Hydroxyethyl)-3-(quinolin-5-yl)-2-(2H-tetrazol-5-yl)benzenesulfonamide] | 1.15 | 25.9 | 0.3 | 3.125 | 4.688 | 0.5859 | – | – | – | – | – | – | – |
| Nc1ccc2cc(-c3ccc(C(F)(F)F)c(S(N)(=O)=O)c3-c3nnn[nH]3)ccc2n1 [Example 745, 3-(2-aminoquinolin-6-yl)-2-(1H-tetrazol-5-yl)-6-(trifluoromethyl)benzenesulfon-amide] | – | – | – | – | – | – | – | – | – | – | – | – | IC50 [1, 13]: 1.05 nM; IC50 [2, 14]: 1.5 nM; IC50 [3, 21]: 0.175 nM; Escherichia coli MITC95 ([4]; CLB30016 (NDM-1), 95% inhibition of bacterial growth): 0.7813 µM; Klebsiella pneumoniae MITC95 ([5]; IHMA599644 (VIM-1), 95% inhibition of bacterial growth): 3.125 µM; Serratia marcescens MITC95 ([6]; CL5741 (IMP-1), 95% inhibition of bacterial growth): 3.125 µM |
